# Source: patent US20060063785A1, “Substituted pyrazolo[1,5-a] pyrimidines and process for making same” (priority 2004, published 2006)
# Read-outs that look alike come from different tables or passages of the source.
# Key:
# LoVo Colon cell line = test: Cytotoxicity assay using LoVo colon cell line (SRB, IC50); type: cell-based; details: read-out: Inhibition of LoVo
# Description: Cytotoxicity Assay Using LoVo Colon Cell Line: • 1. LoVo Colon cell lines was cultured in RPMI 1640 medium (Gibco/Invitrogen Life Sciences) supplemented with 10% fetal bovine serum (FBS, Gibco) and 50 μg/ml gentamicin (Gibco). Cells were maintained at 37° C. under 7% CO2. • 2. Cells were seeded in 96-well microtiter plates (Corning/Costar) in a volume of 0.15 ml of growth medium (4000 cells/well). Plates were incubated at 37° C. overnight (18-24 hours). • 3. Serial dilutions of the test agent were added to each well. Dilutions were prepared in growth medium. One of two dose ranges was used: 5 pM to 20 μM or […] to 10 μg/ml. Cells were incubated with the test compounds for 4 days at 37° C. • 4. Surviving cells were processed using the SRB asay, as described above.
# 5. The drug concentration that inhibits cell proliferation by 50% relative to untreated controls (IC50) was determined from cytotoxicity curves using the LSW Toolbox graphing application.
# [1] = test system: 80S14 (p21-deficient) cells; test: Determination of selectivity of compounds for p21-/- cells: IC50 in 80S14 cells (SRB); type: cell-based, human
# Description: • 1. 80S14 (p21-deficient) cells were cultured in RPMI 1640 medium (Gibco/Invitrogen Life technologies) supplemented with 10% fetal bovine serum (FBS, Gibco) and 10 μg/ml gentamycin (Gibco). Cells were maintained at 37° C. under 7% CO2. • 2. Cells were plated at 6×10^4/ml (0.2 ml/well; 12,000 cells/well) in 96-well microtiter plates (Falcon or Corning/Costar) and incubated at 37° C. overnight (18-24 hours). • 3. 2-5 μl of the test agent-[200 μg/ml stock in 20% DMSO/20 mM HEPES, pH 7.5 (Gibco)] was added to each well to achieve a final concentration of 2-5 μg/ml. Cells were incubated with the test compounds for 5 days at 37° C. • 4. Surviving cells were fixed with 50 μl 50% trichloroacetic acid (Sigma; 10% final concentration) for 1 hour at 4° C. • 5. Plates were rinsed twice with water (0.3 ml per wash using MRD8 robot), and allowed to dry. • 6. Sulforhodamine B (SRB) (Sigma; 0.4% in 1% acetic acid, 50 μl per well; MRD8 robot) was added and plates kept at room temperature for 10 minutes. • 7. Excess dye was removed by washing with 1% acetic acid (3 times, 0.3 ml per wash; MRD8 robot) and allowed to dry. • 8. The dye was solubilized in Tris base (Sigma; 10 mM, 150 μl per well). Plates were kept at room temperature for 30 minutes to allow the dye to diffuse. • 9. Absorbance was measured at 540 nm. • 10. The percentage of cells surviving drug treatment relative to control wells (no drug) was determined. • 11. The difference in % cell survival between the two cell lines was calculated. • 12. Compounds producing a difference score of >50 were considered to be selective for the p21-deficient cells and were evaluated further. Determination of Selectivity of Compounds for p21−/− Cells: • 1. 80S14 cells were cultured as described above. • 2. Cells were seeded in 96-well microtiter plates at 12,000 cells/well (either 0.15 ml/well of 8×10^4 cells/ml suspension, or 0.2 ml/well of 6×10^4 cells/ml suspension). Plates were incubated at 37° C. overnight (18-24 hours). • 3. Serial dilutions of the test agent were added to each well. Dilutions were prepared either in 40% DMSO/20% methanol/20 mM HEPES, pH 7.5 (Gibco) or directly in growth medium. One of two dose ranges were used: 5 pM to 50 μM or 170 pg/ml to 10 μg/ml. Cells were incubated with the test compounds for 5 days at 37° C. • 4. Surviving cells were fixed with 50 μl 50% trichloroacetic acid (Sigma; 10% final concentration) for 1 hour at 4° C. • 5. Plates were rinsed extensively in water, and allowed to dry. • 6. Sulforhodamine B (Sigma; 0.4% in 1% acetic acid, 70 μl per well) was added and plates kept at room temperature for 10 minutes. • 7. Excess dye was removed by washing 5 times with 1% acetic acid and plates were allowed to dry. • 8. The dye was solubilized in Tris base (Sigma; 10 mM, 150 μl per well). Plates were placed on a titer plate shaker (Lab Line Instruments) for 5 minutes to allow the dye to diffuse. • 9. Absorbance was measured at 560 nm.
# 10. The drug concentration which inhibits cell proliferation by 50% relative to untreated controls (IC50) was determined from cytotoxicity curves.
# [2] = Cellular activity in LoVo cell, 4 days incubation, SRB assay
# [3] = Cellular activity in 80S14 (p21-deficient) cells, SRB, class symbols, read-out: IC50 for 80S14
# [4] = Homo sapiens, 80S14, 120 h, read-out: IC50 for 80S14 (μM)
# [5] = LoVo colon cells, 4 days at 37° C., SRB
# [6] = 80S14 (p21-deficient) cells, 5 days at 37° C., SRB, read-out: IC50 for 80S14
# [7] = Homo sapiens, 120 h, 80S14 (p21-deficient) cells, 5 days at 37° C., SRB, read-out: IC50 for 80S14
# [8] = Homo sapiens, 96 h, LoVo colon cells, 4 days at 37° C., SRB
# [9] = Homo sapiens, Cellular activity in 80S14 (p21-deficient) cells, SRB, class symbols, read-out: IC50 for 80S14
molecule,measurement,setting,value
"3-(3,5-Dimethylphenyl)-7-[3-(2-ethyl-2H-tetrazol-5-yl)phenyllpyrazolo[1,5-a]pyrimidine [Example 384]",IC50,LoVo Colon cell line; [2],100 to 1000 nM
same,IC50,[1]; [3],1 to 10 µM
"3-Methyl-N-{^5-[3-(thien-2-ylcarbonyl)pyrazolo[1,5-a]pyrimidin-7-yl]thien-2-yl}butanamide [Example 240]",IC50,LoVo Colon cell line; [2],1000 to 20000 nM
same,IC50,[1]; [3],1 to 10 µM
"7-{3-[2-(Cyclobutylmethyl)-2H-tetraazol-5-yl]phenyl}-3-(3,5-dimethylphenyl)pyrazolo[1,5-a]pyrimidine [Example 381]",IC50,LoVo Colon cell line; [2],100 to 1000 nM
same,IC50,[1]; [3],1 to 10 µM
"C#CCOC(=O)Nc1cccc(-c2ccnc3c(C(=O)c4cccs4)cnn23)c1 [Example 13, prop-2-ynyl 3-[3-(thien-2-ylcarbonyl)pyrazolo[1,5-a]pyrimidin-7-yl]phenylcarbamate]",IC50,"LoVo Colon cell line; Homo sapiens, LoVo, 96 h",100 to 1000 nM
same,IC50,[1]; [4],< 1 µM
"O=C(Nc1cccc(-c2ccnc3c(C(=O)c4cccs4)cnn23)c1)OCCCl [Example 16, 2-chloroethyl 3-[3-(thien-2-ylcarbonyl)pyrazolo[1,5-a]pyrimidin-7-yl]phenylcarbamate]",IC50,"LoVo Colon cell line; Homo sapiens, LoVo, 96 h",< 100 nM
same,IC50,[1]; [4],< 1 µM
"C=C(C)C(=O)Nc1cccc(-c2ccnc3c(C(=O)c4cccs4)cnn23)c1 [Example 36, 2-methyl-N-{3-[3-(thien-2-ylcarbonyl)pyrazolo[1,5-a]pyrimidin-7-yl]phenyl} acrylamide]",IC50,LoVo Colon cell line; [5],< 100 nM
same,IC50,[1]; [6],< 1 µM
"CCCC(Cl)CC(=O)Nc1cccc(-c2ccnc3c(C(=O)c4cccs4)cnn23)c1 (centres unmarked) [Example 121, 3-chloro-N-{3-[3-(thien-2-ylcarbonyl)pyrazolo[1,5-a]pyrimidin-7-yl]phenyl}hexanamide]",IC50,[1]; [7],< 1 µM
"CCCCCCCCCCC(=O)Nc1cccc(-c2ccnc3c(C(=O)c4cccs4)cnn23)c1 [Example 124, N-{3-[3-(thien-2-ylcarbonyl.)pyrazolo[1,5-a]pyrimidin-7-yl]phenyl}undecanamide]",IC50,[1]; [6],10 to 50 µM
"C/C=C/C(=O)Nc1cccc(-c2ccnc3c(C(=O)c4cccs4)cnn23)c1 [Example 129, (2E)-N-{3-[3-(thien-2-ylcarbonyl)pyrazolo[1,5-a]pyrimidin-7-yl]phenyl}but-2-enamide]",IC50,[1]; [7],1 to 10 µM
"O=C(c1cccs1)c1cnn2c(-c3cccc(NC(=O)N4CCOCC4)c3)ccnc12 [Example 131, N-{3-[3-(thien-2-ylcarbonyl)pyrazolo[1,5-a]pyrimidin-7-yl]phenyl}morpholine-4-carboxamide]",IC50,LoVo Colon cell line; [8],100 to 1000 nM
same,IC50,[1]; [7],1 to 10 µM
"CN(C)CCNC(=O)Nc1cccc(-c2ccnc3c(C(=O)c4cccs4)cnn23)c1 [Example 134, N-[2-(dimethylamino)ethyl]-N′-{3-[3-(thien-2-ylcarbonyl)pyrazolo[1,5-a]pyrimidin-7-yl]phenyl}urea]",IC50,[1]; [7],10 to 50 µM
"CCCCCNC(=O)Nc1cccc(-c2ccnc3c(C(=O)c4cccs4)cnn23)c1 [Example 138, N-pentyl-N′-{3-[3-(thien-2-ylcarbonyl)pyrazolo[1,5-a]pyrimidin-7-yl]phenyl}urea]",IC50,LoVo Colon cell line; [8],< 100 nM
"COCCN(CCOC)C(=O)Nc1cccc(-c2ccnc3c(C(=O)c4cccs4)cnn23)c1 [Example 141, N,N-bis(2-methoxyethyl)-N′-{3-[3-(thien-2-ylcarbonyl)pyrazolo[1,5-a]pyrimidin-7-yl]phenyl}urea]",IC50,LoVo Colon cell line; [8],1000 to 20000 nM
"O=C(Nc1cccc(-c2ccnc3c(C(=O)c4cccs4)cnn23)c1)OCC1CCCCC1 [Example 148, Cyclohexylmethyl 3-[3-(thien-2-ylcarbonyl)pyrazolo[1,5-a]pyrimidin-7-yl]phenylcarbarmate]",IC50,LoVo Colon cell line; [5],< 100 nM
same,IC50,[1]; [6],< 1 µM
"Cc1cc(-c2cccc(NC(=O)C3CO3)c2)n2ncc(C(=O)c3cccs3)c2n1 (centres unmarked) [Example 191, {3-[5-Methyl-3-(2-thienylcarbonyl)pyrazolo[1,5-a]pyrimidin-7-yl]phenyl}-2-oxiranecarboxamide]",IC50,[1]; [3],< 1 µM
"CC(C)COC(=O)Nc1cccc(-c2ccnc3c(Br)cnn23)c1 [Example 225, Isobutyl 3-(3-bromopyrazolo[1,5-a]pyrimidin-7-vl)phenvlcarbamate]",IC50,[1]; [3],10 to 50 µM
"CC(C)NC(=S)Nc1ccc(Cl)c(-c2ccnc3c(C(=O)c4cccs4)cnn23)c1 [Example 237, N-{4-Chloro-3-[3-(thien-2-ylcarbonyl)pyrazolo[1,5-a]pyrimidin-7-yl]phenyl}-N′-isopropylthiourea]",IC50,"LoVo Colon cell line; Homo sapiens, 96 h, Cellular activity in LoVo cell, 4 days incubation, SRB assay",100 to 1000 nM
same,IC50,[1]; [9],1 to 10 µM
"O=C(Nc1cccc(-c2ccnc3c(C(=O)c4cccs4)cnn23)c1)NC1CCCCC1 [Example 249, N-Cyclohexyl-N′-{3-[3-(thien-2-ylcarbonyl)pyrazolo[1,5-a]pyrimidin-7-yl]phenyl}urea]",IC50,[1]; [9],< 1 µM
"CN1CCC(C(=O)Nc2cccc(-c3ccnc4c(C(=O)c5cccs5)cnn34)c2)CC1 [Example 307, 1-Methyl-N-{3-[3-(thien-2-ylcarbonyl)pyrazolo[1,5-a]pyrimidin-7-yl]phenyl}piperidine-4-carboxamide]",IC50,[1]; [9],10 to 50 µM
"CC(CCNc1cccc(-c2ccnc3c(C(=O)c4cccs4)cnn23)c1)CC(C)(C)C (centres unmarked) [Example 321, Thien-2-yl(7-{3-[(3,5,5-trimethylhexyl]amino]phenyl}pyrazolo[1,5-a]pyrimidin-3-yl](thien-2-yl)methanone]",IC50,LoVo Colon cell line; [2],100 to 1000 nM
same,IC50,[1]; [3],1 to 10 µM
"O=C(c1cccs1)c1cnn2c(-c3cccc(NCC4CC=CCC4)c3)ccnc12 (centres unmarked) [Example 324, (7-{3-[(cyclohex-3-en-1-ylmethyl)emnino]phenyl}pyrazolo[1,5-a]pyrimidin-3-yl)-(thien-2-yl)-methanone]",IC50,LoVo Colon cell line; [2],< 100 nM
same,IC50,[1]; [3],< 1 µM
"O=C(CCc1cccnc1)Nc1cccc(-c2ccnc3c(C(=O)c4cccs4)cnn23)c1 [Example 336, 3-Pyridin-3-yl-N-{3-[3-(thien-2-ylcarbonyl)pyrazolo [1,5-a]pyrimidin-7-yl]phenyl}propanamide]",IC50,[1]; [9],1 to 10 µM
"(7-{3-[1-(Cyclobutylmethyl)-1H-pyrazol-3-yl]phenyl}pyrazolo[1,5-a]pyrimidin-3-yl)(thien-2-yl)methanone [Example 404]",IC50,LoVo Colon cell line; [2],< 100 nM
same,IC50,[1]; [3],< 1 µM
"N,N′-Diethyl-3-[3-(2-thienylcarbonyl)-pyrazolo[1,5-a]pyrimidin-7-yl]-benzamide [Example 181]",IC50,[1]; [3],10 to 50 µM
"N-{3-[3-(2-Thienylcarbonyl)pyrazolo[1,5-a]pyrimidin-7-yl]phenyl}-3-trifluoromethyl)benzamide [Example 193]",IC50,[1]; [3],< 1 µM
"tert-Butyl 4-[({3-[3-[3-(thien-2-ylcarbonyl)pyrazolo[1,5-a]pyrimidin-7-yl]phenyl}amino)carbonyl]piperidine-1-carboxylate [Example 295]",IC50,[1]; [3],1 to 10 µM
